Laboratory results reported in ChEMBL document CHEMBL1201862, “PubChem BioAssay data set” (2004).
Calls of active or inactive are those of the source.

Columns and labels:
[1] = inhibitors of HIV Env-driven cell fusion, dose response, cherry-pick (AID 652057); assay type: functional, cell-based
[2] = inhibitors of clade B AD8 Env fusion, dose response, cell-based, cherry-pick (AID 652062); assay type: functional;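 note: luciferase signal from cell-cell fusion driven by HIV-1 clade B AD8 Env; potency is for inhibitors of fusion seen as a drop in luminescence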
[3] = cytotoxicity in HEK-293T cells, dose response, cytotoxicity control for TCR NF-kB inhibitor project, luminescence, T-cell screen hits (AID 489026); assay type: functional, cell-based;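 note: cells exposed to compound about 14 hours before the viability readout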
[4] = ZM109 Env clade C HIV-1 fusion inhibitors, dose response, HeLa effector, CEM target cells, luciferase, cherry-pick (AID 652058); assay type: functional, cell-based
[5] = molecular target: T1, Sentrin-specific protease 6 (Homo sapiens, UniProt Q9GZR1); assay type: functional;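 note: Luminescence-based dose-response confirmatory assay of SENP6 inhibition, following up an ultra-high-throughput screen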
T1 sequence (Q9GZR1 whole entry): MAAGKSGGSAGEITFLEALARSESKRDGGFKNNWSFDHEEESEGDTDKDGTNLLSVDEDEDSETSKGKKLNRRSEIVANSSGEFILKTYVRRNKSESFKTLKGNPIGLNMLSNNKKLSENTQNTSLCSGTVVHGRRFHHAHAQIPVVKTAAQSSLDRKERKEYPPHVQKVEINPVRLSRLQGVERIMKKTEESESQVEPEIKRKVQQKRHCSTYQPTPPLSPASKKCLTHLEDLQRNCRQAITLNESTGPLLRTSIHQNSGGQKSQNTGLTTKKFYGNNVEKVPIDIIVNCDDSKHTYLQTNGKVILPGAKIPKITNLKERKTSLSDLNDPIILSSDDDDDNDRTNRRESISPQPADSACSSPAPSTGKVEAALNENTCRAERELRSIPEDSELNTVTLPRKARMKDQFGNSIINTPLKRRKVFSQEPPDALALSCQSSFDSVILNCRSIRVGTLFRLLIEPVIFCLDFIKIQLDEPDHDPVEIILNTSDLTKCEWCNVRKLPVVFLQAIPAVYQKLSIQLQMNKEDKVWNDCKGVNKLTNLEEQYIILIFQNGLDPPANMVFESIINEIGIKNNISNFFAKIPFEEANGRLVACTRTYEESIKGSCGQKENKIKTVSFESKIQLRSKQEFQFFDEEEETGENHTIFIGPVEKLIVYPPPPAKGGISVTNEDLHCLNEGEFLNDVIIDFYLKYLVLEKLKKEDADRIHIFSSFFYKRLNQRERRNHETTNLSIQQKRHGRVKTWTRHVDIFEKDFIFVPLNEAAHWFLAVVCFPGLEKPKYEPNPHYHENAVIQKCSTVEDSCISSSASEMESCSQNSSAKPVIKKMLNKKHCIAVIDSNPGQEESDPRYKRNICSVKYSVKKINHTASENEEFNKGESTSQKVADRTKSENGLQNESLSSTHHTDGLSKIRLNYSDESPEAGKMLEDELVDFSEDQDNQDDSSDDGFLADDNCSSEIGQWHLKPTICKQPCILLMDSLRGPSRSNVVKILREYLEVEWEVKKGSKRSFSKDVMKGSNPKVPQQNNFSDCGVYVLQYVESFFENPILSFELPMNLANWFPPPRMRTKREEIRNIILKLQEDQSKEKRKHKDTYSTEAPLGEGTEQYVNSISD

Hexokinase = Hexokinase (Trypanosoma brucei, UniProt Q38C41); experiment: Confirmation assay for inhibitors of Trypanosoma brucei hexokinase 1-Analogue-first series. [Related pubchem assays (depositor defined):AID1430, AID1632, AID2516, AID2560, AID2579, AID2600, AID449725, AID492951]; assay type: functional
Caspase-3 = molecular target: T2, Caspase-3 (Homo sapiens, UniProt P42574); assay type: functional;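 note: Dose-response selectivity test against caspase-3 for candidate inhibitors of sentrin-specific proteases (SENPs)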
T2 sequence (P42574 whole entry): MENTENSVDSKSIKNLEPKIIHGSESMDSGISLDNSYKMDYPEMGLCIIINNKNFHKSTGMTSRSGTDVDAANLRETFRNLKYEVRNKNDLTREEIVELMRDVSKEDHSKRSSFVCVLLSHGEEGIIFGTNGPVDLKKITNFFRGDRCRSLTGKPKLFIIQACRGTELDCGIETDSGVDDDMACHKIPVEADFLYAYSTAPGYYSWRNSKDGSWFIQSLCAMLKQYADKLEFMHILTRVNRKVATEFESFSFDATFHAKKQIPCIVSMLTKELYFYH

[6] = molecular target: T3, Sentrin-specific protease 8 (Homo sapiens, UniProt Q96LD8); assay type: functional;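 note: luminescence read-out of SENP8 inhibition, dose-response confirmation following an ultra-high-throughput screen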
T3 sequence (Q96LD8 whole entry): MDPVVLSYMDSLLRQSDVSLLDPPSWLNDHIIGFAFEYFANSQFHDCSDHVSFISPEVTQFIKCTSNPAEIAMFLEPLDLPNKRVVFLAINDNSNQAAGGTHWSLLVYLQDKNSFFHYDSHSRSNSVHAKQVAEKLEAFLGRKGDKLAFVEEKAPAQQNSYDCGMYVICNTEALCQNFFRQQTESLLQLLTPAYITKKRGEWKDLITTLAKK

[7] = molecular target: T4, Sentrin-specific protease 7 (Homo sapiens, UniProt Q9BQF6); assay type: functional;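 note: Luminescence-based dose-response confirmation of ultra-high-throughput screening hits, measuring inhibition of SENP7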
T4 sequence (Q9BQF6 whole entry): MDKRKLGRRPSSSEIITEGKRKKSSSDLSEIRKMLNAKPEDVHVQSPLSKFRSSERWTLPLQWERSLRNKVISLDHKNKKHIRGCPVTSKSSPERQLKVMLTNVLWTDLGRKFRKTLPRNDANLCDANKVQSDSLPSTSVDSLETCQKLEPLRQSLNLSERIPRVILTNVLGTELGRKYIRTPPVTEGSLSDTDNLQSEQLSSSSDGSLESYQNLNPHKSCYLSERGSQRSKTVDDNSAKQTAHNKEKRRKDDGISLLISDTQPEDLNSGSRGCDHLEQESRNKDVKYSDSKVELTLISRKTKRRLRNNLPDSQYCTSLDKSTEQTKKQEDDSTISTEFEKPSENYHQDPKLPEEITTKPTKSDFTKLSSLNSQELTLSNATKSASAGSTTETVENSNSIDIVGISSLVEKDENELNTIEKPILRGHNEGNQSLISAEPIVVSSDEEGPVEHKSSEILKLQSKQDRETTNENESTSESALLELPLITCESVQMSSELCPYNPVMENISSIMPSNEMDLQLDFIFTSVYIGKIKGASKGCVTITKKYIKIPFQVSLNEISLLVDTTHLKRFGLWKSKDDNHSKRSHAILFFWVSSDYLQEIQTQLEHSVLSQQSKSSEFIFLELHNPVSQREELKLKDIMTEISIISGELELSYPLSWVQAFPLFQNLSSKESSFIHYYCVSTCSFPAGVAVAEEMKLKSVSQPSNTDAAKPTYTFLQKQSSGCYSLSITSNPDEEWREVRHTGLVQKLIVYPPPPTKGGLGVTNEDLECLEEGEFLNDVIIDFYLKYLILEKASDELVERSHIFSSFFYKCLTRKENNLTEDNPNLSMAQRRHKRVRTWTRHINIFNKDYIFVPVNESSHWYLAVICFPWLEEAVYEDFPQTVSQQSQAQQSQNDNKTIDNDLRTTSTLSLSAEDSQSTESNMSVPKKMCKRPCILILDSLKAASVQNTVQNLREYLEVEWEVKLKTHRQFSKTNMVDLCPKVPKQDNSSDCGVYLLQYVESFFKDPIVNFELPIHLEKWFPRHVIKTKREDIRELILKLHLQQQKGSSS

Chain of Hexokinase (Q38C41 whole entry): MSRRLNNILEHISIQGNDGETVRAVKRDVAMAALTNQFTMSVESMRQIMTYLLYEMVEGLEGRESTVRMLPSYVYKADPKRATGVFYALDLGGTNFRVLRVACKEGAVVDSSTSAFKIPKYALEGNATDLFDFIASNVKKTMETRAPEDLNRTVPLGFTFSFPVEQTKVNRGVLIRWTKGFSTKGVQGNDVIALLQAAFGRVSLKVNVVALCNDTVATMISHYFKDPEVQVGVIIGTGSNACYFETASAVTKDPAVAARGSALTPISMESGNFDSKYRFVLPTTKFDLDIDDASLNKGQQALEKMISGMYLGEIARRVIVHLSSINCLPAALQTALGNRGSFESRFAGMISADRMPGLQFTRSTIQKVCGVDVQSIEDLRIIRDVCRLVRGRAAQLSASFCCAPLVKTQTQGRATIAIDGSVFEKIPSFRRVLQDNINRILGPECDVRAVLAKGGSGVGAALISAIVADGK

Compound | AC50 [1] | AC50 [2] | IC50 [3] | AC50 [4] | IC50 [5] | IC50 (Hexokinase) | IC50 (Caspase-3) | IC50 [6] | IC50 [7]
Clc1ccc2c(c1)C(C1=NCCN1)c1ccccc1CS2 (centres undefined) | 1.48 µM (active) | 4.39 µM (active) | > 80 µM (inactive) | 2.07 µM (active) | – | – | – | – | –
COc1ccc(-c2cc3ccccc3[nH]2)cc1 | – | – | – | – | 34.5 µM (active) | > 25 µM (inactive) | 14.1 µM (active) | 45.2 µM (active) | 18.2 µM (active)
